Series [1] deals with T1, Saccharomyces cerevisiae (yeast) α-glucosidase (Saccharomyces cerevisiae, UniProt P53341).
T1 construct: purchased Sigma Chemical Co., St. Louis City, MO, USA
The series is described as follows: α-Glucosidase inhibitory activity determination (pNPG substrate). The format is biochemical. The conditions noted are these: for inhibition at 7.81 µg/mL: read-out: Maximum Inhibition (%), recorded at 7.81 μg/mL. The method, then:
The α-glucosidase inhibitory activity was closely detected following the method described in detail by Nguyen et al. (2018). The mixture of 50 μL α-glucosidase, 50 μL sample solutions, 100 μL buffer was pre-incubated at 37 °C for 20 min; the reaction then started when 50 μL of p-nitrophenyl glucopyranoside (10 mmol/L) was added to the mixture. After incubation at the same temperature for 30 min, the reaction was stopped by adding 100 μL Na2CO3 solution (1 mol/L) to the reaction mixture; the absorbance of this final mixture was then measured at 410 nm (A). The control group also underwent the same described method with the use of 50 μL buffer instead of 50 μL sample solutions; the absorbance was recorded at 410 nm (B). The aGI activity (%) was calculated using the following equation: aGI (%) = (A − B)/ A × 100.
The inhibition was also expressed as IC50 value determined as per the previous study. The enzyme and the samples were prepared in 0.1 mol/L potassium phosphate buffer (pH 7). […]

The next series concerns ICR mice. The series is described as follows: Starch tolerance test: effect on reducing plasma glucose in ICR mice. It is filed as in vivo, mouse. The conditions noted are these: oral. The source says: Animals: seven week-old male ICR (Institute of Cancer Research) mice were purchased from The National Laboratory Animal Center (No. 128, Sec. 2, Academia Rd., Nangang Dist., Taipei City 11529, Taiwan) and tested in accordance with the approval and guidelines of the Institutional Animal Care and Use Committee of the National Research Institute of Chinese Medicine, Ministry of Health and Welfare (IACUC No. 104-706-1, 29 December 2014). […] Distilled water was used to prepare the condensed tannins and acarbose solutions.
Assay: The effect of condensed tannin-ELCTB-3.1.1 on the reduction of plasma glucose in mice was performed according to the experimental animal protocol described by Nguyen et al. (2017) with the use of starch solution (3 g/kg bw) instead of sucrose solution administered to ICR mice.

The mark [2] stands for this setting: read-out: Maximum Inhibition (%), recorded at 250 μg/mL.
The mark [3] stands for this setting: read-out: α-glucosidase inhibition, aGI (%), primary test of 26 isolated compounds at 250 µg/mL (Figure 2).
The mark [4] stands for this setting: IC50, isolated compounds (Table 3).
[5] abbreviates: isolated compounds (Table 3), read-out: IC50 (converted).

Like-named read-outs stand apart in the source and are kept apart here. A value given as a limit tells only on which side of the number the result lay.

T1 sequence (P53341 whole entry): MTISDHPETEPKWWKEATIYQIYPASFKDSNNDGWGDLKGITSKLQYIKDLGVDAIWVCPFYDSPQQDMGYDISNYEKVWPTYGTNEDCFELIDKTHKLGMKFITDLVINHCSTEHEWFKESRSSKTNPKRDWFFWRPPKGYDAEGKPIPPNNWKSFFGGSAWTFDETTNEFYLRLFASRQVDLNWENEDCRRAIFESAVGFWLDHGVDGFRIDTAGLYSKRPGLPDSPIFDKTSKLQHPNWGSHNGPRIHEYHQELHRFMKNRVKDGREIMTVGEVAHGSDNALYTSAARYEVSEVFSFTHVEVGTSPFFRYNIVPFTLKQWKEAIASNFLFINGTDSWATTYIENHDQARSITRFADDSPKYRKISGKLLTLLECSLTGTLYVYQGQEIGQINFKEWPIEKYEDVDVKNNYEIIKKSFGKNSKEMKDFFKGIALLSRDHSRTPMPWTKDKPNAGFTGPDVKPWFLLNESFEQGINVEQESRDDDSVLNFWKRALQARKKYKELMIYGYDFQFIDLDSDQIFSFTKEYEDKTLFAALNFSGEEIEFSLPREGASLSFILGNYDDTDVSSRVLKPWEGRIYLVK

In the case of `C[C@H]1O[C@H](O[C@H]2[C@H](O)[C@@H](O)[C@@H](O[C@H]3[C@H](O)[C@@H](O)C(O)O[C@@H]3CO)O[C@@H]2CO)[C@H](O)[C@@H](O)[C@@H]1N[C@H]1C=C(CO)[C@@H](O)[C@H](O)[C@H]1O` (stereo partly shown) [Acarbose, reference compound], the inhibition at 2500 µg/mL in series [1] (read-out: Maximum Inhibition (%), acarbose, recorded at 2500 μg/mL (Table 3)) came out at 65 ± 2.7%; in series [1] (read-out: α-Glucosidase Inhibitory Activity Inhibition (%), yeast α-glucosidase, acarbose tested at 2500 μg/mL (Table 2)), 64 ± 2.4%. Besides, the figures for the “mice with symptoms of diarrhea” value with ICR mice (acarbose 25 mg/kg bw) and with ICR mice (acarbose 50 mg/kg bw) were 20% and 50%, respectively.

The IC50 is the concentration that gives 50% inhibition. On to `CC1=CC(=O)OCC1O[C@@H]1O[C@H](CO)[C@@H](O)[C@H](O)[C@H]1O` (stereo partly drawn) [Compound 1, Walterolactone A/B β-D-pyranoglucoside], for which, in series [1], 3.12 µM corresponded to half-maximal inhibition (IC50) and the inhibition at 7.81 µg/mL stood at 100 ± 5.8%.

Turning to `COc1cc(O[C@@H]2O[C@H](CO)[C@@H](O)[C@H](O)[C@H]2O)cc(OC)c1O` [Compound 9, 1-β-D-glucopyranosyloxy-3,5-dimethoxy-4-hydroxybenzene], the inhibition at 250 µg/mL in series [1] (setting [2]) was at most 38%; in series [1] (setting [3]), 38 to 60%.

In series [1] (setting [4]), `Oc1cc(O)c2c(c1)O[C@@H](c1cc(O)c(O)c(O)c1)[C@H](O)C2` [Compound 10, (−)-Gallocatechin] showed a half-maximal inhibitory concentration (IC50) of 38.9 µM. Moreover, in series [1] (setting [2]), the inhibition at 250 µg/mL was found to be 93 ± 2.9%.

With `O=C(c1ccc(O)cc1)C(O)CO[C@@H]1O[C@H](CO)[C@@H](O)[C@H](O)[C@H]1O` (stereo partly drawn) [Compound 11, Schweinfurthinol 9-O-β-D-pyranoglucoside], the 50% inhibitory concentration (IC50) in series [1] is 91.8 µM. Also, the inhibition at 250 µg/mL is 87 ± 4% in series [1] (setting [2]) and 90 to 100% in series [1] (setting [3]).

With `CC(C)=CC(=O)O[C@@H]1[C@H](O)[C@H](O)[C@@H](O)[C@H](O)[C@H]1O` [Compound 12, 1-O-(3-methyl)-butenoyl-myo-inositol], the IC50 in series [1] (setting [5]) is 103 µM. Moreover, the inhibition at 250 µg/mL in series [1] (setting [2]) worked out at 96 ± 6.9%.

With `COc1cc(O)cc(OC)c1O[C@@H]1O[C@H](CO)[C@@H](O)[C@H](O)[C@H]1O` [Compound 14, Leonuriside], the 50% inhibitory concentration (IC50) in series [1] (setting [5]) was 2.79 µM. In series [1], the inhibition at 7.81 µg/mL amounted to 99 ± 6.4%.

For the compound `Oc1cc(O)c2c(c1)O[C@H](c1ccc(O)c(O)c1)[C@@H](O)C2` [Compound 19, (+)-Catechin], in series [1] (setting [5]), the IC50 is 0.389 µM. The inhibition at 0.977 µg/mL in series [1] (read-out: Maximum Inhibition (%), recorded at 0.977 μg/mL) stood at 100 ± 5.9%.

Turning to `COC(=O)c1cc(O)c(O)c(O)c1` [Compound 20, Methyl galloate], half-maximal inhibition in series [1] (setting [4]) (IC50) was put at 597 µM. Also, in series [1] (setting [2]), the inhibition at 250 µg/mL was determined as 58 ± 1.2%.

Turning to `Oc1cc(O)c2c(c1)O[C@@H](c1ccc(O)c(O)c1)[C@H](O)C2` [Compound 23, (−)-Catechin], in series [1] (setting [2]), the inhibition at 250 µg/mL is at most 38%.

The values are drawn from article PMC6222451, “Novel Potent Hypoglycemic Compounds from Euonymus laxiflorus Champ. and Their Effect on Reducing Plasma Glucose in an ICR Mouse Model” (Molecules : A Journal of Synthetic Chemistry and Natural …, 2018).
